Reference: PMC9072872, “Structure-based design of nucleoside-derived analogues as sulfotransferase inhibitors” (RSC Advances, 2019)

Tests used:
[1] = target: T1, HS2ST (Gallus gallus, UniProt Q76KB1); assay: Microfluidic mobility shift sulfation assay, HS2ST (fluorescent hexasaccharide substrate); format: biochemical, chicken; details: for IC50: read-out: IC50 against HS2ST
T1 construct: made in house; host or cells: E. coli Rosetta-gami (DE3)
T1 sequence (Q76KB1 1-356): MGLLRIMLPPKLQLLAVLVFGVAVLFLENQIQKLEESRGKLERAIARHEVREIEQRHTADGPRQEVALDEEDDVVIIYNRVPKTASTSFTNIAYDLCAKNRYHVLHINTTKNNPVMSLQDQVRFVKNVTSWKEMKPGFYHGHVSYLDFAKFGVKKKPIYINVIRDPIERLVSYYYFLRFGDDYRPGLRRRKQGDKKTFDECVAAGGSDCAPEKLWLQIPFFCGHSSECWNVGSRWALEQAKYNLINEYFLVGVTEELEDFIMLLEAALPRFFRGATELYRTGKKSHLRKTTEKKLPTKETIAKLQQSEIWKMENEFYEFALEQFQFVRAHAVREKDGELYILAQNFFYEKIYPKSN
Description: (§1) Compounds were initially screened at 400 μM in the presence 20 nM HS2ST and 0.1 μM TPST1 respectively.
(§2) Fig. 4 Summary of enzymatic inhibition assays against HS2ST and TPST1. (A) Enzymatic analysis of HS2ST1 inhibition by a panel of PAP- and PAPS-mimetic compounds. […] HS2ST sulfotransferase activity was assayed using a fluorescent hexasaccharide substrate (2 μM) and normalised to DMSO (4% v/v) or buffer control. Data shown is mean and SD of 4 repeat experiments. (B) Full dose–response curves for selected compounds. […] HS2ST activity calculated as previously described. Data from two independent experiments are combined. (C) Enzymatic analysis of TPST1 inhibition by a panel of PAP- and PAPS-mimetic compounds. […] TPST1 activity was measured using fluorescently-labelled CC4-tide (2 μM) and normalised to DMSO (4% v/v) or buffer control. (D) Full dose–response curves for selected compounds. […] TPST1 activity was measured using CC4-tide and normalised to DMSO or buffer controls as previously described. The data shown is from duplicate experiments.
N-sulfated, fluorescein-tagged HS2ST1 hexasaccharide glycan substrate (GlcNS-GlcA- GlcNS-IdoA-GlcNS-GlcA-fluorescein, where S=sulfation) containing L-IdoA at the third residue from the reducing end (to which a linker and the fluorophore were conjugated) was purchased from GLY CAN therapeutics. TPST1 peptide substrate (CC4-tide, 5-FAM-EDFED YEFDG-CONH2) was synthesised using solid-phase Fmoc chemistry (Pepceuticals, Leicester, UK). All standard laboratory biochemicals, were purchased from Sigma, and were of the highest analytical quality.
(§3) 5'-phosphosulfate, lithium salt hydrate, PAP (adenosine 3',5'-diphosphate, disodium salt), CoA (coenzymeA, sodium salt), ATP (adenosine 5’-triphosphate, disodium salt hydrate) were all purchased from Sigma and stored at -80 °C to minimise degradation.
Recombinant Protein Production and SDS-PAGE […]
(§4) Microfluidics-Based Sulfation Assay
(§5) Non-radioactive microfluidic mobility shift peptide and carbohydrate sulfation assays were performed in solution with a 12-sipper chip coated with SR8 reagent and a Perkin Elmer EZ Reader II system 8 using an EDTA-based separation buffer and real-time kinetic evaluation of substrate sulfation. Pressure and voltage settings were adjusted manually to afford optimal separation of the sulfated product and non-sulfated substrate, with a sample (sip) volume of 20 nL, and total assay tim es appropriate for the experiment. The fluorophore tagged TPST1 peptide substrate and HS2ST1 glycan substrate where detected by the EZ Reader via LED-induced fluorescence.
(§6) Individual sulfation assays were assembled in a 384 well plate in a volume of 80 µL in the presence of […]
(§7) and 5 mM MgCl2. The degree of substrate sulfation was directly calculated using EZ Reader software by measuring the sulfo-product:non-sulfated substrate ratio at each time-point. The act ivity of the sulfotransferase enzymes in the presence of biochemicals and small molecule inhibitors was quantified in ‘kinetic mode’ by monitoring the amount of sulfated product generated over the assay time, relative to control assay with no additional inhibitor molecule (DMSO or buffer control). Data was normalized with respect to these control assays, with sulfate incorporation into the substr ate limited to ~ 20% to prevent depletion of PAPS and to ensure assay linearity. K m and IC50 values were determined by non-linear regression analysis with GraphPad Prism software. […]

[2] = target: T2, TPST1 (Homo sapiens, UniProt O60507); assay: Microfluidic mobility shift sulfation assay, TPST1 (fluorescent CC4-tide substrate); format: biochemical; details: for IC50: read-out: IC50 against TPST1
T2 construct: Human TPST1 (residues Lys43-Leu360) enzyme was purified as a recombinant protein; made in house
T2 sequence (O60507 43-360): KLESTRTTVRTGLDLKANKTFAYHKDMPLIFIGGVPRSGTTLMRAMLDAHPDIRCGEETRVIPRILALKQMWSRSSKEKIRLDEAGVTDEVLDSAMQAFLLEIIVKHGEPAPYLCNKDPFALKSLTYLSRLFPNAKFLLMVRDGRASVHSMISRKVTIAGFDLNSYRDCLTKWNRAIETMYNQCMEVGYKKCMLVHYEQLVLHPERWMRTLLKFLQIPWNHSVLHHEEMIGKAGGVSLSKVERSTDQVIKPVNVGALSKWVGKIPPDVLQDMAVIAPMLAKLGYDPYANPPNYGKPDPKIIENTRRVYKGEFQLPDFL
Description: as §1
as §2, with “duplicate experiments. […]” for “duplicate experiments.”
TPST1 peptide substrate (CC4-tide, 5-FAM-EDFED YEFDG-CONH2) was synthesised using solid-phase Fmoc chemistry (Pepceuticals, Leicester, UK). All standard laboratory biochemicals, were purchased from Sigma, and were of the highest analytical quality.
as §3
Recombinant Protein Production and SDS-PAGE
Human TPST1 (residues Lys43-Leu360) enzyme was purified as a recombinant protein containing an N-terminal 6xHis tag as previously described. […]
as §4, §5, §6, §7

Row | IC50 [1] | IC50 [2] | inhibitory activity against HS2ST ([1]; compound 400 μM, HS2ST 20 nM, PAPS 5 μM) | inhibitory activity against TPST1 ([2]; compound 400 μM, TPST1 0.1 μM, PAPS 5 μM) | SMILES
1 | 12.7 µM | 3.6 µM | – | – | Nc1ncnc2c1ncn2[C@H]1C[C@H](OP(=O)(O)O)[C@@H](COP(=O)(O)O)O1 [2′-deoxy-PAP]
2 | – | – | inactive | inactive | Nc1ncnc2c1ncn2[C@H]1C[C@H](O)[C@@H](Cn2cc(P(=O)(O)O)nn2)O1 [Compound 11]
3 | 100 to 300 µM | 100 to 300 µM | – | – | Nc1ncnc2c1ncn2[C@H]1C[C@H](OP(=O)(O)O)[C@@H](Cn2cc(P(=O)(O)O)nn2)O1 [Compound 12]
4 | 100 to 300 µM | 100 to 300 µM | – | – | Nc1ncnc2c1ncn2[C@H]1C[C@H](O)[C@@H](Cn2cc(P(=O)(O)OCc3ccccc3)nn2)O1 [Compound 13]
